The test system of this assay is T. brucei brucei. Nature of the assay: T. brucei brucei growth inhibition assay. Type of assay: cell-based, Trypanosoma brucei brucei clone 427-221a (bloodstream forms). The following applies: Trypanosoma brucei; bloodstream forms, T. brucei brucei clone 427-221a; 40 hours at 37° C.; 0.5% DMSO; ATP-bioluminescence; read-out: IC50 (μM) (95% Confidence Intervals). The procedure: The growth inhibition assay for T. brucei brucei was conducted as described previously by Z. B. Mackey et al (Kenny K. H. Ang, Joseline Ratnam, Jiri Gut, Jennifer Legac, Elizabeth Hansell, Zachary B. Mackey, Katarzyna M. Skrzypczynska, Anjan Debnath, Juan C. Engel, Philip J. Rosenthal, James H. McKerrow, Michelle R. Arkin, Adam R. Renslo (2011) “Mining a Cathepsin Inhibitor Library for New Antiparasitic Drug Leads”, PLoS Neglected Tropical Diseases, 5(5):e1023). Bloodstream forms of the monomorphic T. brucei brucei clone 427-221a were grown in complete HMI-9 medium containing 10% FBS, 10% Serum Plus medium (Sigma Inc., St. Louis, Mo., USA), 50 U/mL penicillin and […] streptomycin (Invitrogen) at 37° C. under a humidified atmosphere and 5% CO2. Inhibitor stocks were prepared in 100% DMSO and screened at […] for percent inhibition values or serially diluted from […] in 10% DMSO for […] determinations. […] of each dilution was added to […] of diluted parasites ([…]) in sterile Greiner 96-well flat white opaque culture plates such that the final DMSO concentration was 0.5%. The 0% inhibition control wells contained 0.5% DMSO while 100% inhibition control wells contained […] thimerosal (Sigma). After compound addition, plates were incubated for 40 hours at 37° C. At the end of the incubation period, […] of CellTiter-GIo™ reagent (Promega Inc., Madison, Wis., USA) was added to each well and plates were placed on an orbital shaker at room temperature for 2 min to induce lysis. After an additional 10 min of incubation without shaking to stabilize the signal, the ATP-bioluminescence of each well was determined using an Analyst HT plate reader (Molecular Devices, Sunnyvale, Calif., USA). Raw values were converted to log 10 and percentage inhibition calculated relative to the controls. IC50 curve fittings were performed with Prism 4 software as above. Pentamidine was used as a comparator in the assay.

Drawing on patent US9169237B1, “Antiprotozoal amidine compounds” (Medi Synergics, LLC, priority 2014, dated 2015), this text covers IC50 for three compounds.

The IC50 is the point on the concentration scale where inhibition reaches its midpoint. In the case of `CN(CCCC1(c2ccc(F)cc2)OCc2cc(C#N)ccc21)C(=N)c1ccccc1` (stereo not drawn) [Example 2, N-{3-[5-cyano-1-(4-fluorophenyl)-1,3-dihydro-2-benzofuran-1-yl]propyl}-N-methyl-phenylmethanimidamide], the IC50 turned out to be 1.1 µM.
The same measure for `CC(=N)N(C)CCCC1(c2ccc(F)cc2)OCc2cc(C#N)ccc21` (stereo not drawn) [Example 1, N-{3-[5-cyano-1-(4-fluorophenyl)-1,3-dihydro-2-benzofuran-1-yl]propyl}-N-methyl-ethanimidamide]: 10 µM; for `CN(CCCC1(c2ccc(F)cc2)OCc2cc(C#N)ccc21)C1=NCCCC1` (stereo not drawn) [Example 3, 1-(4-fluorophenyl)-1-{3-[methyl(3,4,5,6-tetrahydropyridin-2-yl)amino]propyl}-1,3-dihydro-2-benzo-furan-5-carbonitrile]: 20 µM.
